Reference: paper PMC8662647, “Two Functional Epithelial Sodium Channel Isoforms Are Present in Rodents despite Pronounced Evolutionary Pseudogenization and Exon Fusion” (Molecular Biology and Evolution, 2021)

What was measured:
guinea pig δβγ-ENaC = biological target: T1, guinea pig δβγ-ENaC (Cavia porcellus, UniProt H0UT09+H0VJS1+H0VNV9); assay: two-electrode voltage clamp, Xenopus oocytes, concentration-response; format: cell-based; details: channel block; -60 mV; ORS 90 mM NaCl, pH 7.4, room temperature
T1 construct: gene Scnn1d; heterotrimer in Xenopus laevis oocytes; δ with fused exons 11/12
T1 sequence (H0VJS1 1-618): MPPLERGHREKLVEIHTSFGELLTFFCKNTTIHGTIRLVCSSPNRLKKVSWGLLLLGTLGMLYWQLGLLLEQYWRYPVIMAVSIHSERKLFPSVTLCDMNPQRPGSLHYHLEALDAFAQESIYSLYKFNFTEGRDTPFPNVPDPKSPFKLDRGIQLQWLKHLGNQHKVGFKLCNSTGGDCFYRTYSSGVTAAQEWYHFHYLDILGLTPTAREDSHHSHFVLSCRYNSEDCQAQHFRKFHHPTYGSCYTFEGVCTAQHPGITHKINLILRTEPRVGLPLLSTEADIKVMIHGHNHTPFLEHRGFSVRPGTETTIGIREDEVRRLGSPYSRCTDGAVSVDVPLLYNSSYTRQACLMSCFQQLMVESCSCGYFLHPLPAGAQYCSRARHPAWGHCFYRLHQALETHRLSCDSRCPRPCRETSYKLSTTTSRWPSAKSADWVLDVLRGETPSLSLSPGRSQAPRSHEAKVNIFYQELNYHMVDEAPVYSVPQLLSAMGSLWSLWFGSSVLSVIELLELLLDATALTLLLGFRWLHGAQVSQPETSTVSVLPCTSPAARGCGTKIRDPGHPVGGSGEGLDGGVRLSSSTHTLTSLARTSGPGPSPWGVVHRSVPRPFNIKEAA
T1 sequence (H0VNV9 1-640): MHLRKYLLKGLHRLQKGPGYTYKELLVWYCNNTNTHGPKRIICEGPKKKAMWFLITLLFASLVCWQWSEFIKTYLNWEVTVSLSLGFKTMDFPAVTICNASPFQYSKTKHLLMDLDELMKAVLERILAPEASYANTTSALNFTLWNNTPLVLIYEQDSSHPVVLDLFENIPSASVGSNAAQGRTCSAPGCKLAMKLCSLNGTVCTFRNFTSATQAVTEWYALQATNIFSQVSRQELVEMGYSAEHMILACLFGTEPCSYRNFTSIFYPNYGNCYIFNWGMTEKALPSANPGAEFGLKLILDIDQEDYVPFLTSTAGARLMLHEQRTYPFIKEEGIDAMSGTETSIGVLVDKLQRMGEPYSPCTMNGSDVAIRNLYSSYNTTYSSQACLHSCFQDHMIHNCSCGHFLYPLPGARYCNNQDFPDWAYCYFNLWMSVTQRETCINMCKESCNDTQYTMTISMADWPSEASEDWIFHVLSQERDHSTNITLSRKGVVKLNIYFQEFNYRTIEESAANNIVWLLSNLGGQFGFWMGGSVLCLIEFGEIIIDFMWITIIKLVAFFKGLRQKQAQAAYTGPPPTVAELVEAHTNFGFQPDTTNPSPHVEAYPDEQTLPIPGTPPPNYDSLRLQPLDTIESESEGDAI
T1 sequence (H0UT09 1-653): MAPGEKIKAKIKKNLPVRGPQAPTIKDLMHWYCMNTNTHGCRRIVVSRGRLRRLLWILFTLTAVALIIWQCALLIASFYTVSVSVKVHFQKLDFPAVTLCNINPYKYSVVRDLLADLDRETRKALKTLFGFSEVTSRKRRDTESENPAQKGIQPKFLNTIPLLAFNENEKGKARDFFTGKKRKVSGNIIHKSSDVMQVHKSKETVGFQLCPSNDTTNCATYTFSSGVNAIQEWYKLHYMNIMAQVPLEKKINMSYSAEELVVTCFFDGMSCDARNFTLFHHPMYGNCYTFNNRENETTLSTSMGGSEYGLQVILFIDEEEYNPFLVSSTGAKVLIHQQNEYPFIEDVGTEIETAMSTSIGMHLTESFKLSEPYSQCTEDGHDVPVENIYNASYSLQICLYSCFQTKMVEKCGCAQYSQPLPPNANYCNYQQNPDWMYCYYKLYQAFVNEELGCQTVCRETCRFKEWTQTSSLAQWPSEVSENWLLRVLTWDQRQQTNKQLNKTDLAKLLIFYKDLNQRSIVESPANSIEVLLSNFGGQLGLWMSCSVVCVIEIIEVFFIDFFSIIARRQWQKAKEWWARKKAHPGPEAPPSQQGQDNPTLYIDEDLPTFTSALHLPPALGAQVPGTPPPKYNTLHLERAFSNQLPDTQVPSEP

guinea pig αβγ-ENaC = biological target: T2, guinea pig αβγ-ENaC (Cavia porcellus, UniProt B8QP44+H0UT09+H0VNV9); assay: as above; format: cell-based
T2 construct: gene SCNN1A; heterotrimer in Xenopus laevis oocytes; printed GenBank ids are 5'RACE products
T2 sequence (B8QP44 1-656): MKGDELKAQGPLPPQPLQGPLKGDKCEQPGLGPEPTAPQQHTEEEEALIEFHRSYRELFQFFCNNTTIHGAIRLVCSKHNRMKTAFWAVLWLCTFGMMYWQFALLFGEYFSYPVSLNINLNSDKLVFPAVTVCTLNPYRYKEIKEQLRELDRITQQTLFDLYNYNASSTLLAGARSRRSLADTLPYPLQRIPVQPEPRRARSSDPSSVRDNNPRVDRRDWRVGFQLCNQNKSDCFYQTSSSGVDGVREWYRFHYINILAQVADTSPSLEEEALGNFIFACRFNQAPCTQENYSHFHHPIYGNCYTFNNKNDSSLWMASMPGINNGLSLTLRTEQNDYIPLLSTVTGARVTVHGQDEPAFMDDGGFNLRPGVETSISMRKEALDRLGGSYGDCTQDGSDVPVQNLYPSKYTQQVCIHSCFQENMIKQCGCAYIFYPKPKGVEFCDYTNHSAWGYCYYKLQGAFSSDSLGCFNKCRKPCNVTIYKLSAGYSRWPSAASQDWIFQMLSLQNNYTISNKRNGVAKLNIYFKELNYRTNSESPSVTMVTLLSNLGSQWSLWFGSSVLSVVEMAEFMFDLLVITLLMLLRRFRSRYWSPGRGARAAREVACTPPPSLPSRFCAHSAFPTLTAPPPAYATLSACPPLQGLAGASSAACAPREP
T2 sequence (H0VNV9 1-640): T1 sequence (H0VNV9 1-640)
T2 sequence (H0UT09 1-653): T1 sequence (H0UT09 1-653)

How did the IC50 (guinea pig δβγ-ENaC) turn out when `N=C(N)NC(=O)c1nc(Cl)c(N)nc1N` [amiloride] was run?
The IC50 was 240 ± 50 nM.

And the IC50 (guinea pig αβγ-ENaC)?
The IC50 was 150 ± 20 nM.
